This experiment concerns RXF 393 renal. Briefly: NCI-60 cell line screen, 384-well format.

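GI50 = concentration required for 50% inhibition of growth. At the TGI there is no net growth.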

Turning to `N#Cc1ccc(C(c2ccc(C#N)cc2)n2cncn2)cc1`, the GI50 is 16.8 µM and the TGI was 97.8 µM.

The record behind these values is PubChem BioAssay (NCI).
